# Patent US12383530B2, “Pharmaceutical combination for the treatment of melanoma” (Piramal Enterprises Limited, priority 2013, dated 2025)
# “And” between values parts separate entries of the source, which are not always exact repeats. Equal entries are not always repeated.
# Legend:
# [1] = tested on: A375 (BRAFV600E mutated) cell line; experiment: CCK8 live cell dehydrogenase cytotoxicity assay, A375 (96-well); format: cell-based, human; conditions: 48 h
# Procedure: (§1) The cells were then treated with the respective test compounds.
# (§2) At the end of the incubation periods, the plates were assayed using the CCK8 cytotoxicity assay protocol. The synergism was determined by the combination index (CI) calculated using the Compusyn software by Chou and Talalay (4). CI<1 is synergistic, CI=1 is additive and CI>1 is antagonistic.
# (§3) Statistical analysis was performed using the Student t test, and a p value of <0.05 was considered significant. Data are expressed as the mean±standard error of the mean (SEM). The mean value was obtained from at least two independent experiments, each performed in triplicate.
# (§4) Logarithmically growing cells were plated at a density of 3×10^3 cells/well and allowed to recover for 16-18 h. […] After 48 h, cell toxicity was determined by CCK-8 reagent (Dojindo Molecular Technologies, Inc, Maryland, and Japan). In accordance with the manufacturer's instructions, 5 μL/well CCK-8 reagent was added and plates were incubated for 2 h. The toxicity was determined by measuring the absorbance on Tecan Sapphire multi-fluorescence micro-plate reader at a wavelength of 450 nm corrected to 650 nm and normalized to controls. All the experiments were performed twice in triplicates.
# [2] = tested on: G361 melanoma cells; experiment: Annexin V-FITC staining for detection of early apoptosis; format: cell-based, human; conditions: 1 μM of each compound, alone or together, 24 h
# Procedure: Annexin V-FITC is a sensitive probe for identifying apoptotic cells. During early apoptosis, the membrane phospholipid phosphatidyl serine (PS) is translocated from the inner to the outer leaflet of the plasma membrane, thereby exposing PS to the external cellular environment. Annexin V is a 35-36 kDa Calcium dependent phospholipid binding protein that has a high affinity for PS and binds to cells with exposed PS.
# The melanoma cells G361 was seeded in […] tissue culture flasks. After 24 h, cells were treated with: i) compound A (1 μM); ii) vemurafenib (1 μM); and iii) compound A (1 μM) and vemurafenib (1 μM) together; for 24 h. The control cells were left untreated for 24 h. Medium containing floating cells were collected and pooled with the adherent cells after harvesting with trypsin at the different time points. The cells were washed twice with cold PBS with centrifugation at 1000 rpm for 10 minutes. The cell pellet was resuspended in 1× binding buffer (10 mm HEPES pH 7.4, 140 mM NaCl, 2.5 mM CaCl2) at a concentration of 1×10^6 cells/mL. 100 μL of the solution (1×10^5 cells) were stained with Annexin V-FITC and propidium iodide. The cells were incubated for 15 min at room temperature (25-30° C.) in the dark and the sample was analysed by flow cytometry.
# [3] = tested on: A375 (BRAFV600E mutated) cell line; experiment: CCK8 live cell dehydrogenase assay, A375 (384-well, Example 2); format: cell-based, human; conditions: A375 parental, single agent, 48 h
# Procedure: Logarithmically growing human BRAFV600E mutated melanoma cells were seeded at a density of 1500 cells/well in 30 μL of Dulbecco's Modified Eagle medium medium (DMEM) in 384-well plate (Corning, USA) using Tecan automated platform (FreedomEvo Liquid handling system) and incubated for about 12-16 h to allow the cells to adhere. […] The controls used were only cells or cells along with the vehicle (DMSO).
# The plates were incubated for 48 h in humidified 5% CO2 incubator at 37°±1° C. Post incubation the plates were assayed using the CCK8 reagent (Dojindo Molecular Technologies, Inc, Maryland, and Japan). In accordance with the manufacturer's instructions, 3 μL CCK-8 reagent was added in each well of the 384 well plate and plates were incubated for 2 h. The toxicity was determined by measuring the absorbance on Tecan Sapphire multi-fluorescence micro-plate reader at a wavelength of 450 nm normalized to controls. All the experiments were performed in quadruplets.
# [4] = tested on: SK-MEL3 melanoma cells; experiment: Analysis of cell cycle distribution using flow cytometry, SK-MEL3; format: cell-based; conditions: 5 days
# Procedure: In case of SK-MEL3 melanoma cells, the cells were treated with: i) compound A (1 μM); ii) vemurafenib (10 μM); and iii) compound A (1 μM) and vemurafenib (10 μM) together for 5 days.
# (§5) The control cells were left untreated for 5 days. Both detached and adherent cells were harvested at the end of 5 days. The cells were washed twice with approximately 5 mL of phosphate buffered saline (PBS) with centrifugation at 1000 rpm for 10 min. The cells were resuspended in 500 μL of PBS and fixed in 500 μL ice-cold 70% ethanol. The fixed cells were incubated at room temperature for 30 min, spun at 1000 rpm for 10 min. To the cell pellet, 1 mL of chilled 70% ethanol was added and stored below 0° C. till further analysis. The cells were washed twice with PBS to remove fixative and re-suspended in 250 μL PBS. To this 12.5 μL of propidium iodide (1 mg/ml in PBS) and 12.5 μL Rnase A (1 mg/mL) was added. After incubation at 37° C. for 30 min, the cells were analyzed using flow cytometry.
# (§6) A flow cytometer (Becton Dickinson FACS Calibur, USA) was used for these studies in accordance with the manufacturer's recommendations. The argon ion laser set at 488 nm was used as an excitation source. Cells with DNA content between 2n and 4n were designated as being in G1, S and G2/M phases of the cell cycle, as defined by the level of red fluorescence. […] The number of cells in each cell cycle compartment was expressed as a percentage of the total number of cells present.
# [5] = tested on: G361 (BRAFV600E mutated) cell line; experiment: CCK8 live cell dehydrogenase cytotoxicity assay, G361 (96-well); format: cell-based, human; conditions: 48 h
# Procedure: as §1, §2, §3, §4
# [6] = tested on: A375R cell line (vemurafenib resistant); experiment: CCK8 live cell dehydrogenase assay, A375R (384-well, Example 2); format: cell-based, human; conditions: single agent, 48 h
# Procedure: The cytotoxicity studies using all the test compounds as single agents and in combinations were carried out using the CCK8 live cell dehydrogenase assay.
# Logarithmically growing human BRAFV600E mutated melanoma cells were seeded at a density of 1500 cells/well in 30 μL of Dulbecco's Modified Eagle medium medium (DMEM) in 384-well plate (Corning, USA) using Tecan automated platform (FreedomEvo Liquid handling system) and incubated for about 12-16 h to allow the cells to adhere. The cells were then treated for 48 h with different doses of compound A and anticancer agents (vemurafenib or dabrafenib or trametinib) as monotherapy (used singly) and in combinations. Studies using different dosages were carried out for each combination (e.g. combination of compound A and vemurafenib). […]
# The plates were incubated for 48 h in humidified 5% CO2 incubator at 37°±1° C. […] The toxicity was determined by measuring the absorbance on Tecan Sapphire multi-fluorescence micro-plate reader at a wavelength of 450 nm normalized to controls. […]
# The potency of the combination was quantified using Calcusyn software (Biosoft, Ferguson, MO, USA) which is based on the Chou Talalay method that calculates a combination index (CI) with CI values less than 1 indicating synergy.
# [7] = tested on: MDAMB-435S (BRAFV600E mutated) cell line; experiment: CCK8 live cell dehydrogenase cytotoxicity assay, MDAMB-435S (96-well); format: cell-based, human; conditions: 48 h
# Procedure: as §1, §2, §3, §4
# [8] = tested on: G361 melanoma cells; experiment: Analysis of cell cycle distribution using flow cytometry, G361; format: cell-based, human; conditions: 5 days; for apoptosis (sub G1 phase): 1 μM of each compound, alone or together
# Procedure: The G361/SK-MEL3 melanoma cells were seeded in […] tissue culture flasks. After 24 h, G361 cells were treated with: i) compound A (1 μM); ii) vemurafenib (1 μM); and iii) compound A (1 μM) and vemurafenib (1 μM) together for 5 days.
# as §5, §6
Compound,"inhibition of cells ([1]; A375, compound A 3 μM alone) [%]",cells in early apoptosis (annexin stained cells) [2] [%],sensitivity of the cell line (dose response curve) [3],apoptosis (sub G1 phase) ([4]; compound A 1 μM alone) [%],"inhibition of cells ([5]; G361, compound A 0.3 μM alone) [%]",sensitivity of the cell line (dose response curve) [6],"inhibition of cells ([7]; MDA-MB435S, compound A 1 μM alone) [%]","IC50 ([7]; MDAMB435S, cytotoxicity, Hydrochloride, read-out: IC50 in μM (±SEM))",apoptosis (sub G1 phase) [8] [%],"inhibition at 1 µM ([1]; Homo sapiens, A-375, A375, vemurafenib 1 μM alone, read-out: inhibition of cells) [%]",apoptosis (sub G1 phase) ([4]; vemurafenib 10 μM alone) [%],"G1 arrest ([4]; vemurafenib 10 μM, control cells 67.38%) [%]","inhibition at 1 µM ([5]; Homo sapiens, G-361, G361, vemurafenib 1 μM alone, read-out: inhibition of cells) [%]","inhibition at 1 µM ([7]; Homo sapiens, MDA-MB-435S, MDA-MB435S, vemurafenib 1 μM alone, read-out: inhibition of cells) [%]","G1 arrest ([8]; vemurafenib 1 μM, control cells 72.36%) [%]"
"CN1CC[C@@H](c2c(O)cc(O)c3c(=O)cc(-c4ccc(C(F)(F)F)cc4Cl)oc23)[C@@H]1CO.Cl (relative stereo) [compound A, (+)-trans-2-(2-chloro-4-trifluoromethylphenyl)-5,7-dihydroxy-8-(2-hydroxy-methyl-1-methylpyrrolidin-3-yl)-chromen-4-one Hydrochloride]",46,8,equally sensitive,19.63,2,equally sensitive,32,0.85 µM and 0.7 µM,9.48,,,,,,
"CCCS(=O)(=O)Nc1ccc(F)c(C(=O)c2c[nH]c3ncc(-c4ccc(Cl)cc4)cc23)c1F [vemurafenib, reference compound]",,20,,,,,,,2.3,23,15.12,76.78,30,31,91.94
